According to EP3502102A1, “STING INHIBITORS” (ECOLE POLYTECHNIQUE FEDERALE DE LAUSANNE (EPFL), priority 2017, dated 2019):
Blank lines part the entries; values can stand above or below the compound they belong to.

Key:
STING [1] = target: T1, STING (Mus musculus, UniProt Q3TBT3); assay: Blue native gel assay of STING clusters; type: cell-based; parameters: expressed in transfected cells; host or cells: HEK293T; conditions: C-178, C-176 1 µM, 2-BP 50 µM; CMA 1.5 h
T1 sequence (Q3TBT3 1-378): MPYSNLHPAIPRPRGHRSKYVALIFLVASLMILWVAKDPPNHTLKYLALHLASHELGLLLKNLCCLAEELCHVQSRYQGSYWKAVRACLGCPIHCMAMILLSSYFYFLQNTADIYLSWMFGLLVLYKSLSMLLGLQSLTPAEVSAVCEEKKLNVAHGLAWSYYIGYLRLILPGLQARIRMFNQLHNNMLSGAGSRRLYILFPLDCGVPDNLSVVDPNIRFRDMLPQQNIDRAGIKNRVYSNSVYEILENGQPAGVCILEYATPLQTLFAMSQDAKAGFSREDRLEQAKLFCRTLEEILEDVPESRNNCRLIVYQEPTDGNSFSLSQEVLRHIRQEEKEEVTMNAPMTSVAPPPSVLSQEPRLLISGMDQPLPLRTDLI
Protocol: (§1) Reporter activity was measured 16 h after compound treatment. A nonlinear regression analysis was performed. […] Circles indicate substitutes compared to C-176. d, e, Chemical compounds from (c) were tested at 0.5 µM for inhibitory activity in HEK293T cells transfected with STING (e) or RIG-I (f) in conjunction with IFN-• luciferase reporter, respectively. b, e, f, Values of inhibitor-treated cells were normalized to DMSO-treated cells. […] Cytokine levels were normalized to DMSO-treated control cells. A nonlinear regression analysis was performed for cGAMP stimulation. b, c, BMDMs were pre-treated with C-178 (0.25 µM) and stimulated with cGAMP, cyclic di-GMP, CMA, 90mer dsDNA or LPS for 3 h. The induction of Ifnb1 mRNA levels was assessed by RT-qPCR. d, Heatmaps of RNA sequencing analysis of BMDMs treated with DMSO or CMA and with or without addition of C-178. […] Reporter activity was measured 16 h after transfection and values were normalized to DMSO-treated control cells. c, BMDMs were treated with C-178 (0.25 µM) for 1 h, washed or left untreated and after an additional hour stimulated with cGAMP. […] Flag-STING was immunoprecipitated from whole cell lysate and analysed by autoradiography. In parallel, cell lysates were analysed by immunoblotting for p-TBK1 and STING. d, HEK293T cells expressing STING were treated as indicated (C-178 (1 µM)) and stimulated with CMA for 1.5 h. […]

STING [2] = target: T1, STING; assay: IFN-beta luciferase reporter in HEK293T cells transfected with STING, alone or with a cyclic dinucleotide synthase; type: cell-based; parameters: expressed in transfected cells; host or cells: HEK293T
Protocol: Reporter activity was measured 16 h after compound treatment. A nonlinear regression analysis was performed. […] Cytokine levels were normalized to DMSO-treated control cells. […] Nuclei were stained with DAPI. […] Depicted genes were measured by RT-qPCR. […] 16 h later Luciferase activity was measured. […] Flag-STING was immunoprecipitated and analysed by autoradiography.
HEK293T cells expressing murine STING with an N-terminal mCherry-tag ^28 were transfected using GeneJuice (Millipore) with a construct encoding for cyclic di-GMP synthase in conjunction with an IFN-• firefly luciferase reporter plasmid. 3 h after transfection cells were seeded in […] (Corning) coated with library compounds. For each compounds, a 40 nl volume was selected to obtain a concentration of 10 µM in the assay plates. The amount of DMSO in each well was normalised to 0.1%. After overnight treatment, cells were lysed in lysis buffer (25 mM Tris-phosphate (pH 7.8), 2 mM DTT, 2 mM 1,2-diaminocyclohexane-N,N,N',N'-tetraacetic acid, 10% glycerol, 1% Triton® X-100) for 20 min followed by the addition of firefly luciferase. Reporter activity was measured using a Tecan Infinite plate reader. The screen was performed using on ∼ 20.000 compounds from a chemically diverse compound collection available at the BSF core facility at EPFL.
In these cells, transient transfection of vectors encoding for cyclic di-GMP synthase (cdG-Syn) and an IFN-• reporter leads to robust induction of firefly luciferase activity. We used this system to perform a high-throughput chemical screen with a library of ∼ 20.000 small molecule compounds (Fig. 6b). To increase the selectivity of candidate compounds against the STING pathway, hits from the primary screen were counter-screened for their effect on RIG-I-driven activation of the IFN-• reporter. […] To further validate the two small molecules, we treated wild-type HEK293T cells with C-178 and C-176, in which STING was either expressed alone or in conjunction with cdG-Syn. […] We next conducted a limited structure-activity relationship (SAR) analysis. Since both C-178 and C-176 share a characteristic nitrofuran moiety, we prepared analogues of C-176/8 in which this structural motif was substituted (Fig. 1c).

BMDMs = assay: RNA sequencing of BMDMs with or without CMA; type: cell-based, mouse; conditions: pre-treatment with C-178, CMA
Protocol: as §1

STING [3] = target: T1, STING; assay: Type I IFN bioassay of BMDMs stimulated with cGAMP; type: cell-based; parameters: endogenous in cells; host or cells: BMDMs from wild type mice; conditions: BMDMs pre-treated, 0.02 µM- 2.5 µM, read-out: calculated IC50, production of type I IFNs
Protocol: as §1

TLR-4 = target: T2, TLR-4 (Mus musculus, UniProt Q9QUK6); assay: Ifnb1 mRNA (RT-qPCR) in BMDMs stimulated with LPS (control); type: cell-based; conditions: 0.25 µM
T2 construct: endogenous in cells; host or cells: BMDMs from wild type mice
T2 sequence (Q9QUK6 26-835): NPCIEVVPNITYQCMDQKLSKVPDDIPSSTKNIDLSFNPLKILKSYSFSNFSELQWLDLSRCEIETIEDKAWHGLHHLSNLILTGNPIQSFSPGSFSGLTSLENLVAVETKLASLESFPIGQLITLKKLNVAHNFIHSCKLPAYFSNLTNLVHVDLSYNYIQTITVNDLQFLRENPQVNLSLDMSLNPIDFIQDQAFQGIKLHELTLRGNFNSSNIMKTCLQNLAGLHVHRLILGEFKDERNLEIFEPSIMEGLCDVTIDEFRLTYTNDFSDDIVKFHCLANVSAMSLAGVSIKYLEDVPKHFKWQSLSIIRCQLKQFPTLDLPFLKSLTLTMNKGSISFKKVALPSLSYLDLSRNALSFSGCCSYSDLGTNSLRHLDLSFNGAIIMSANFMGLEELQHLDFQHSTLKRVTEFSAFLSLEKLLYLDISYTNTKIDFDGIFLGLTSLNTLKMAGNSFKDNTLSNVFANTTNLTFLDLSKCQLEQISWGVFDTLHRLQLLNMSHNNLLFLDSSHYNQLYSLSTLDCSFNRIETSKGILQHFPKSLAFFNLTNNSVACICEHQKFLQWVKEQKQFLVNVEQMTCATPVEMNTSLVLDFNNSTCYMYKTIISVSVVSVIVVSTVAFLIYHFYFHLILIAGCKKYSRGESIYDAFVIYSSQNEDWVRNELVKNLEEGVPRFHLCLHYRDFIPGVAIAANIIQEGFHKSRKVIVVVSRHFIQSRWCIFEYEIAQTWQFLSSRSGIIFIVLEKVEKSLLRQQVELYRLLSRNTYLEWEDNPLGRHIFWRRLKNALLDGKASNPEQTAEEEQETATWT
T2 sequence (Q9JHF9 19-160 partner): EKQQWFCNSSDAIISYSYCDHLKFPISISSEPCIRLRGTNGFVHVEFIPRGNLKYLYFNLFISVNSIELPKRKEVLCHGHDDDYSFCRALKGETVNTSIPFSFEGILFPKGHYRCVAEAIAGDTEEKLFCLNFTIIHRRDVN
Protocol: as §1

[4] = target: T3, hsSTING(AA1-138)-mmSTING(AA138-378) (UniProt Q3TBT3+Q86WV6); assay: IFN reporter in HEK293T cells, chimeric construct 1; type: cell-based; conditions: reversed construct (human N-terminal, mouse C-terminal part); 0.5 µm
T3 construct: hsSTING(AA1-138)-mmSTING(AA138-378); expressed in transfected cells; host or cells: HEK293T
Protocol: as §1

T3 sequence (Q86WV6 1-138, one chain of several): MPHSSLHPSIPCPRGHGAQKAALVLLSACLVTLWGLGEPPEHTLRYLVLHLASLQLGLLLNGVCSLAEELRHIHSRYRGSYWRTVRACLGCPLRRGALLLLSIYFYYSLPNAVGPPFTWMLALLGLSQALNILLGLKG

SMILES: CCCCCCCCCCCCCCC(Br)C(=O)O (centres unmarked) [2-bromopalmitate, reference compound]
assembly of STING clusters (STING [1]): blocked

inhibitory capacity against STING (STING [2]; derivatives tested at 0.5 µM, HEK293T transfected with STING): inactive
SMILES: O=C(Nc1ccc(I)cc1)c1ccco1 [C-176-009]

SMILES: O=C(Nc1ccc2c(c1)oc1ccccc12)c1ccc([N+](=O)[O-])o1 [C-178, N-dibenzo[b,d]furan-3-yl-5-nitro-2-furamide]
significantly affected induced expression, number of the 500 most up-regulated genes after CMA (BMDMs): 498 | significantly affected induced expression, share of the 500 most up-regulated genes after CMA (BMDMs): 99.6% | IC50 (STING [3]): ~23 nM | activity against the TLR-4 agonist LPS (TLR-4): not active | IFN reporter activity of chimeric construct [4]: inactive | half-maximal inhibitory concentration (IC50) values, IFN-• reporter activity (STING [2]; wild-type HEK293T, STING expressed alone or in conjunction with cdG-Syn, 0.01-5µM, 16 h): nanomolar
